Measurements: patent publication US20120046224A1, “TREATMENT OF DIABETES AND METABOLIC SYNDROME” (NORDIC BIOSCIENCE A/S, priority 2009, published 2012)

Columns and labels:
DIO rats = assay: Oral glucose tolerance test (OGTT) in DIO rats; type: in vivo, rat
Description: (§1) A total of 48 selectively bred male DIO rats were used. At the beginning of the experiment, the animals had reached an age of 35 weeks, out of which 31 weeks were on high-fat diet.
(§2) At day −7, 21 and 42 fasted serum and urine samples were collected and whole body tissue composition was evaluated by MR scanning. At day 42, an oral glucose tolerance test (OGTT) was performed to evaluate glucose homeostasis in the rats. At day −1 the animals were stratified according to weight and whole body fat mass (assessed by a 4-in-1 EchoMRI scanner) to the different treatment groups. The groups were randomized in three teams by body weight.
First day of dosing was day 0. Animals were dosed per oral 5 ml/kg.
In order to test the glucose handling in different treatment groups, an oral glucose tolerance test (OGTT) was performed.

[1] = rats and mice, intravenous bolus injection; cited from earlier work
[2] = rabbits, injection, 600 MRC U per month or 50 MRC U single dose; cited from earlier work
[3] = i.m. 100 MRC units twice daily, 15 days; cited from earlier work
[4] = Paget's disease of the bone patients, injection; cited from earlier work
[5] = cited from earlier work
CTX-II = assay: Serum CTX-II after oral dosing in fasted rats; type: in vivo, rat; settings: sCT 2 mg/kg, carrier 150 mg/kg
Description: Fasted rats were treated with oral doses of carrier alone (5-CNAC or SNAC), sCT alone or sCT in combination with carrier (5-CNAC or SNAC). Blood sampling was conducted at baseline, one, three and six hours after oral dosing, and serum was isolated. Concentrations of CTX-II were subsequently measured in the serum samples.
Rats were randomized according to weight into five groups and fasted over night. […] Blood samples were taken from tail vein at baseline, one, three and six hours after oral dosing. Serum was isolated from the blood samples and CTX-II concentrations were measured in undiluted serum samples. […] Each group contained 6 animals. Statistical analyses were conducted with one-way ANOVA and Bonferroni's Multiple Comparison Test to adjust for multiple tests. Error bars indicate standard error of mean (SEM). Asterisks indicate: **=p<0.01, ***=p<0.001.

[6] = insulin dependent diabetic patients, intravenous infusion; cited from earlier work
[7] = Body weight and whole body composition (MR scanning) in DIO rats; type: in vivo, rat; settings: for increase in fat content (MR analysis): CT 2 mg/kg/day with 5-CNAC
Description: as §1, §2
First day of dosing was day 0. Animals were dosed per oral 5 ml/kg. The compound solution was administered once daily at 7:00 AM-2:00 PM during the whole study (0-42 days) per oral gavage using a gastric tube connected to a 5 ml syringe (luer lock™. Becton).
To assess the distribution of the gained weight during the treatment program the animals were subjected to MR analysis after termination. Two parameters were investigated: 1) change in fatty mass and, 2) change in total water content.

[8] = rats or mice, cited from earlier work
Sprague Dawley rats = assay: OGTT in healthy lean Sprague Dawley rats; type: in vivo, rat
Description: The rats were treated bi daily for 5 weeks using the same dose as in the DIO rats.

[9] = rats, intracerebroventricular administration; cited from earlier work
[10] = latent diabetes in humans, infusion; cited from earlier work
[11] = healthy volunteers, intramuscular; cited from earlier work
[12] = Weight gain in normal Sprague-Dawley rats; type: in vivo, rat; settings: twice daily oral, salmon calcitonin 2 mg/kg/day with 5-CNAC 150 mg/kg/day, 8 weeks, vs control group
Description: (§3) A total of 40 rats were divided into 4 groups, two bilateral ovariectomy (OVX) groups and two normal groups.
(§4) The first day of dosing was day 0. Animals were dosed per oral 5 ml/kg. The compound solution was administered twice daily, the first dose at 7:00 AM and the second dose 8 hours later (between 3 and 4 PM) during the whole study. The dosing was done by oral gavage using a gastric tube connected to a 5 ml syringe. Feeding was ad libitum.

rat hepatocytes = settings: cited from earlier work
[13] = intra-muscular, cited from earlier work
[14] = 100 MRC units per day, 2 months, cited from earlier work
[15] = rhesus monkeys, parenteral, 5 day administration period; cited from earlier work
[16] = 62.26 pmol/kg, patients with a duodenal ulcer; cited from earlier work
[17] = fasting animals, parenterally administered; cited from earlier work
[18] = Ovariectomy (OVX)-induced weight gain in Sprague-Dawley rats; type: in vivo, rat
Description: as §3, §4
A total of 20 rats were bilaterally ovariectomized (OVX). The animals were treated once daily with either 5-CNAC 150 mg/kg/day alone or that amount of 5-CNAC in combination with Calcitonin 2 mg/kg/day for 8 weeks during which the weight was monitored once a week. Feeding was again ad libitum.
The first day of dosing was day 0. Animals were dosed per oral 5 ml/kg. The compound solution was administered once daily between 7:00 and 8:00 AM during the whole study per oral gavage using a gastric tube connected to a 5 ml syringe.

Substance: Salmon calcitonin [CT]
- AUC of change in insulin levels during OGTT (DIO rats): lowest change in insulin levels
- AUC of net change in plasma glucose (glucose clearance during OGTT) (DIO rats): significantly increased glucose clearance during the OGTT
- effect on AUC of change in glucose (DIO rats; CT compared to Rosiglitazone groups): markedly larger than the changes seen in the Rosiglitazone groups
- peak glucose levels during OGTT (DIO rats; CT treated compared to 5CNAC group): strongly reduced peak glucose levels
- basal insulin level to which insulin returns after the peak (DIO rats; OGTT): 4.53 µg/L
- plasma insulin response during OGTT (DIO rats; peak 15 minutes after glucose, CT compared to 5-CNAC group): attenuated insulin response
- maximum / peak blood glucose level during OGTT (DIO rats; reached 15 minutes after OGTT (CT), at 60 minutes (5-CNAC)): 8.2 mM
- fasting plasma glucose [1]: elevation of fasting plasma glucose
- glucose level measured after fasting [2]: marked decrease in glucose level
- carbohydrate metabolism after a mixed meal stimulus [3]: not seen to cause appreciable change in carbohydrate metabolism
- serum glucose and serum insulin [4]: a moderate immediate rise in serum glucose and a slight decrease in serum insulin
- glucose level and glucagon ([5]; insulin dependent diabetics): a fall in glucose level along with the fall in glucagon
- circulating glucagon and serum insulin ([5]; normal human volunteers, infused): a fall in circulating glucagon levels and a fall in serum insulin
- serum CTX-II concentration (CTX-II; one hour after oral dosing, vs carrier alone): significantly lowered the CTX-II concentration
- serum CTX-II concentration (CTX-II; three and six hours after oral dosing): return to the baseline level
- glucose rise in arginine tolerance test [6]: abolished the glucose rise normally seen in an arginine tolerance test
- increase in fat content (MR analysis) ([7]; compared to 5-CNAC and vehicle groups): a significant increase compared to the 5-CNAC and vehicle groups
- increase in fat content (MR analysis) ([7]; compared to rosiglitazone group, p<0.0001): significantly lower increase in the fat content compared to rosiglitazone group
- change in body weight ([7]; once daily oral, Calcitonin 2 mg/kg/day with 5-CNAC 150 mg/kg/day, or 5-CNAC 150 mg/kg/day alone): Neither the CT treated group nor the 5-CNAC group display any change in their body weight
- short term food intake ([8]; acute parenteral administration): potently induced reduction in short term food intake
- duration of the effect on food intake ([8]; parenteral): 3 days
- AUC of change in glucose during OGTT (Sprague Dawley rats): potently reduces glucose levels
- increase of insulin level in response to OGTT (Sprague Dawley rats): approximately 0.5 μg/L
- time until insulin level returned to basal (Sprague Dawley rats; OGTT): 60 min
- AUC of change in insulin levels during OGTT (Sprague Dawley rats; between groups, p=0.08): the AUC of change is significant between the groups
- basal glucose levels (Sprague Dawley rats; treated bi daily for 5 weeks, same dose as in DIO rats): lowered basal glucose levels
- peak glucose level during OGTT (Sprague Dawley rats; vs vehicle (5-CNAC) group): prevented this drastic peak
- glucose stimulated release of insulin [9]: increased glucose stimulated release of insulin
- serum level of insulin and blood sugar [10]: reducing the serum level of insulin and increasing the blood sugar
- blood glucose during a morning fast and glucose tolerance test [11]: inhibited decrease of blood glucose during a morning fast and impaired a glucose tolerance test
- natural weight gain [12]: reduction of the natural weight gain
- effect on rat hepatocytes and other cells (rat hepatocytes): little effect
- integrated glucose areas under plasma glucose curves ([13]; humans): approximately doubling
- response to a glucose tolerance test ([13]; normal humans): a deterioration in response to a glucose tolerance test
- glucose tolerance ([14]; Paget's disease or osteoporosis patients): Glucose tolerance did not deteriorate significantly
- basal plasma glucose [14]: significant increase in basal plasma glucose
- food intake [15]: reduce food intake in rhesus monkeys throughout a 5 day administration period
- post-prandial insulin release [16]: post-prandial insulin release was abolished
- glucose levels [17]: a rise in glucose levels
- OVX-induced weight gain ([18]; once daily oral, 8 weeks): does not protect against OVX-induced weight gain
- OVX-induced increase in bodyweight ([18]; twice daily oral, 7 weeks): protected partially against the OVX-induced increase in bodyweight
